According to ChEMBL document CHEMBL5604063, “ASAP - DENV-2 NS2B-NS3 protease fluorescence dose response” (2024):

Molecular target: Genome polyprotein (dengue virus type 2, UniProt P29990)
Format: functional, Thailand/16681/1984

Chain of Genome polyprotein (P29990 1346-1475 limits assumed): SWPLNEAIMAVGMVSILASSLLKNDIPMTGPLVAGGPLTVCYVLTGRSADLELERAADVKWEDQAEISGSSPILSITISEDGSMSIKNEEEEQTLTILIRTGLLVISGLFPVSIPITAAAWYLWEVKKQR
Chain of Genome polyprotein (P29990 1476-2093 limits assumed): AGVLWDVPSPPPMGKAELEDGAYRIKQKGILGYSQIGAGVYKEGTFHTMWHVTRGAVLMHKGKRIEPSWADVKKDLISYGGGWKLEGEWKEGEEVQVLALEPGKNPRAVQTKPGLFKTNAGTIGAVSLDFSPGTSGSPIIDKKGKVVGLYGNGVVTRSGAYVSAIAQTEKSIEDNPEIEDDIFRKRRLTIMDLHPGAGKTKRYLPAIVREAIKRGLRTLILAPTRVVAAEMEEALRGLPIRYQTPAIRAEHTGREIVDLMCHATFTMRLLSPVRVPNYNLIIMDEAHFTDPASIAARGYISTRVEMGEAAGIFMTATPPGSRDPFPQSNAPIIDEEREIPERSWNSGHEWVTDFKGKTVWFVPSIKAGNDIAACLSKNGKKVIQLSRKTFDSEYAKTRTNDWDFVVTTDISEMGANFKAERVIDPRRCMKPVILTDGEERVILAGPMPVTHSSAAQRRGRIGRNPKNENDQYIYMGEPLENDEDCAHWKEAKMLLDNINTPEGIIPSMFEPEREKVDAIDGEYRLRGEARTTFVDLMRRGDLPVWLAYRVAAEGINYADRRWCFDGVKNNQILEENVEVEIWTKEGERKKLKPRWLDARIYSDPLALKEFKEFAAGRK

| SMILES | IC50 [µM] |
| --- | --- |
| c1ccc2nc(SCc3cn4ccccc4n3)cnc2c1 | > 99.5 |
| c1ccc(C2CCN(Cc3ccc4nccnc4c3)CC2)nc1 | > 99.5 |
| c1cc2sccc2c(N2CCN(Cc3ccc4cn[nH]c4c3)CC2)n1 | > 99.5 |
| O=C(O)c1sc2cccnc2c1Br | > 99.5 |
| FC(F)(F)c1nc(CNCc2cocn2)cs1 | > 99.5 |
| Brc1cnn(C2CCN(Cc3csnn3)CC2)c1 | > 99.5 |
| COc1ccc2c(O)nn(S(=O)(=O)c3ccc(C(=O)O)cc3)c2c1 | > 99.5 |
| COc1nc(Cl)c(CSc2nc(C)co2)s1 | > 99.5 |
| NC(=O)c1ccc(Cn2nnc(C=Cc3ccccc3)n2)cc1 | > 99.5 |
| [O-][S@@+](Cc1nc(-c2cccs2)no1)c1cccs1 | > 99.5 |
| Cc1nnnn1Cc1ncc(Br)s1 | > 99.5 |
| O=C(O)c1c(Br)sc2nnsc12 | 69.5 |
| C[S@@+]([O-])c1nncn1Cc1ccc(Cl)s1 | > 99.5 |
| O=S(=O)(CCOc1ccccc1)c1nccs1 | > 99.5 |
| O=c1[nH]c(CSc2ccccc2Cl)nc2ccsc12 | > 99.5 |
| Cc1nnc(CSc2ncnc3sccc23)o1 | > 99.5 |
| c1nnc(SCCCSc2nncs2)s1 | > 99.5 |
| O=c1ccn(Cc2cc(=O)n3ccccc3n2)c2ccsc12 | > 99.5 |
| Brc1nc(Br)n(Cc2cscn2)n1 | > 99.5 |
| Cn1ncnc1Sc1nc(C2CCCC2)ns1 | > 99.5 |

| SMILES | IC50 [µM] |
| --- | --- |
| NCc1cccc(NC(=O)[C@@H](NC(=O)OCc2ccccc2)c2cccc(OC[C@H]3CCCO3)c2)c1 | > 99.5 |
| O=c1c2ccccc2nnn1CSc1nnc(-c2ccccc2)o1 | > 99.5 |
| COCc1nn(CC#Cc2ccc(Cl)cc2)c(=O)o1 | > 99.5 |
| Cn1cc(N2CCN(Cc3c[nH]c4ccccc34)CC2)cn1 | > 99.5 |
| [O-][S@@+](Cc1ncccn1)c1ncccc1Br | > 99.5 |
| COc1ccc(F)cc1-c1ccc(S(=O)(=O)Nc2ccc(Cl)cc2C(N)=O)cc1 | 28.4 |
| O=c1[nH]c2cccc(N3CCN(Cc4c[nH]c5ccccc45)CC3)c2[nH]1 | > 99.5 |
| O=C(Nc1cc(Cl)cc(C(=O)Nc2ccc3c(c2)C[C@H](F)C3)c1)OCc1ccccc1 | > 99.5 |
| O=S(=O)(c1cccs1)N1CCN(CC=Cc2ccccc2)CC1 | > 99.5 |
| CC(=O)N[C@H](C(=O)N[C@H]1C(=O)O[C@H]1C)c1ccc(OCc2ccccc2)cc1 | > 99.5 |
| N#Cc1ccc(OCCn2nnn(-c3ccccc3)c2=O)cc1 | > 99.5 |
| O=C(Nc1cc(Cl)cc(C(=O)Nc2ncc3n2CCNC3)c1)OCc1ccccc1 | > 99.5 |
| NCc1cccc(NC(=O)[C@@H]2[C@@H]3CCCCC[C@@H]3[C@@H]2NC(=O)OCc2ccccc2)c1 | 22.2 |
| N#Cc1ccc(S(=O)(=O)CCn2nc(-c3ccco3)oc2=O)cc1 | > 99.5 |
| NC(=O)c1cnccc1N1CCN(Cc2c[nH]c3ccccc23)CC1 | > 99.5 |
| c1ccc(OC2CCN(Cc3c[nH]c4ccccc34)CC2)cc1 | > 99.5 |
| CSC1(C(=O)N[C@H](CC(=O)Nc2cccc(CN)c2)c2ccc(OCc3ccccc3)c(Br)c2)CCC1 | 34.9 |
| NCc1cccc(NC(=O)[C@@H](NC(=O)OCc2ccccc2)c2cccc(OCC3CCC3)c2)c1 | 44 |
| CN(C)Cc1nnc(NC(=O)[C@@H](NC(=O)OCc2ccccc2)c2ccc(OCc3ccccc3)cc2)s1 | > 99.5 |
| C[C@H]1CC[C@@](Cc2nc3ccccc3[nH]2)(C(=O)Nc2cccc(CN)c2)CC1 | > 99.5 |

| SMILES | IC50 [µM] |
| --- | --- |
| Cc1nc(COc2ccc([C@@H](NC(=O)OCc3ccccc3)C(=O)Nc3cccc(CN)c3)cc2)cs1 | > 99.5 |
| c1ccc2c(CN3CCN(c4ccncc4)CC3)c[nH]c2c1 | > 99.5 |
| O=C(Nc1cc(Cl)cc(C(=O)Nc2nc3c(s2)CCNC3)c1)OCc1ccccc1 | > 99.5 |
| COc1c(C)cc(C(=O)Nc2cccc(CN)c2)cc1NC(=O)OCc1ccccc1 | > 99.5 |
| NCc1cccc(NC(=O)Cc2cc(Cl)cc(NC(=O)OCc3ccccc3)c2)c1 | 85.8 |
| Nc1ccc2ccc(B(O)O)cc2c1 | > 99.5 |
| CC(C)(C)OC(=O)Nc1cccc2[nH]cc(CN3CCC(c4cscn4)CC3)c12 | > 99.5 |
| COc1ccc(F)cc1-c1ccc(S(=O)(=O)Nc2cc(Cl)cc(C(=O)O)c2)cc1 | 89.9 |
| Brc1ccsc1CSc1cnn[nH]1 | > 99.5 |
| NC(=O)c1cc(Cl)ccc1NS(=O)(=O)c1ccc(-c2ccc(F)cc2)cc1 | 33.3 |
| Cc1sc2nc(-c3cccs3)[nH]c(=O)c2c1C | > 99.5 |
| Clc1snnc1CN1CCC(c2nc3ccccc3o2)CC1 | > 99.5 |
| O=C(Nc1ccc(Cl)cc1C(=O)Nc1cccc(C2CCNCC2)c1)OCc1ccccc1 | > 99.5 |
| NCc1cccc(NC(=O)[C@@H](NC(=O)OCc2ccccc2)c2ccc(OC[C@H]3CCCCO3)cc2)c1 | > 99.5 |
| NCc1ccc(COc2ccc(-c3ccc(N)nc3)c3c2OB(O)CC3)cc1 | > 99.5 |
| Brc1cccc2cn(Cc3ncccn3)nc12 | > 99.5 |
| O=c1oc2cccnc2n1CC=Cc1ccccc1 | > 99.5 |
| c1ccc2[nH]c(CC3CCN(Cc4nccs4)CC3)nc2c1 | > 99.5 |
